Molecular target: RihB (MBP:RihB) (Escherichia coli, UniProt P33022)
Details: high activity, data not shown

Sequence of RihB (MBP:RihB) (P33022 whole entry): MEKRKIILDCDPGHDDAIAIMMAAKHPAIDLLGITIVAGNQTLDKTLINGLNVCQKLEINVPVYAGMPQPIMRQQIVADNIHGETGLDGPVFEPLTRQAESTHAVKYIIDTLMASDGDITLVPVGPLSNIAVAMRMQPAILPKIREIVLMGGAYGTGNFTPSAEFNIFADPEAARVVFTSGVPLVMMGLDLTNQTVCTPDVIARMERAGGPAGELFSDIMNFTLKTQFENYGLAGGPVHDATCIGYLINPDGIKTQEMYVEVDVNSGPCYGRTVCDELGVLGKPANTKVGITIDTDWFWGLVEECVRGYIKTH

**Q.** For `O=c1ccn([C@@H]2O[C@H](CO)[C@@H](O)[C@H]2O)c(=O)[nH]1` [uridine], which “nucleoside hydrolase activity assay” value is on record?
**A.** MBP:RihB showed high enzymatic activity for cytidine and uridine

— article PMC3608555, “The HopQ1 Effector’s Nucleoside Hydrolase-Like Domain Is Required for Bacterial Virulence in Arabidopsis and Tomato, but Not Host Recognition in Tobacco” (PLoS ONE, 2013)
